According to patent publication US6479480B1, “Phenylindole derivatives as 5-ht2a receptor ligands” (Merck Sharp & Dohme Ltd., priority 1998, dated 2002):

How the values were obtained:
animal models = conditions: preclinical studies; cited from earlier work
schizophrenic patients = conditions: multicentre, placebo-controlled study; cited from earlier work
[1] = target: human dopamine D2 receptor (Homo sapiens, UniProt P14416); conditions: cited from earlier work
human dopamine D2 receptor, sequence (P14416 whole entry): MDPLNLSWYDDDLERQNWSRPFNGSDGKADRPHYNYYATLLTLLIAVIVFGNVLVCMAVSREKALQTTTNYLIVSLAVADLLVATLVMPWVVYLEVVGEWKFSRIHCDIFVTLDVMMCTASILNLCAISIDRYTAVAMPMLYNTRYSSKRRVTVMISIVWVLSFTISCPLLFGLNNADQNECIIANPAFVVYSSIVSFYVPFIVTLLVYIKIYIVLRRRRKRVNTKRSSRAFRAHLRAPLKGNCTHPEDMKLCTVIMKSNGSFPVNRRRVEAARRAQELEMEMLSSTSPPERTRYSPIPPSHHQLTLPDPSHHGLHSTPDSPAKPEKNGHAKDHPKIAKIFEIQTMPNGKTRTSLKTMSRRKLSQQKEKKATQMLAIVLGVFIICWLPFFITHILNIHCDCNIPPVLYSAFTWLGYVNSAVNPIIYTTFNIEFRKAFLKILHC

Row | Structure (SMILES) | melting point | other results
1 | CN1CCN(C)[C@@H](Cc2c(-c3ccccc3)[nH]c3c(Cl)cccc23)C1.Cl.Cl | 260 °C | 
2 | O=C(O)C(=O)O.c1ccc(CCN2CCCC(Cc3c(-c4ccccc4)[nH]c4ccccc34)C2)cc1 (centres unmarked) (hydrate or solvate) | 128 °C | 
3 | CN1CCN(C)[C@@H](Cc2c(-c3ccccc3)[nH]c3ccccc23)C1.Cl.Cl | 253 °C | 
4 | CN1CCC[C@@H]1Cc1c(-c2ccccc2)[nH]c2ccccc12 | 132 °C | 
5 | CN1C2CCC(CC2)C1Cc1c(-c2ccccc2)[nH]c2ccccc12.O=C(O)C(=O)O (centres unmarked) | 193 °C | 
6 | O=C(O)C(=O)O.c1ccc(CCN2CCC(Cc3c(-c4ccccc4)[nH]c4ccccc34)C2)cc1 (centres unmarked) | 100 °C | 
7 | CN1CCNC[C@@H]1Cc1c(-c2cccc(F)c2)[nH]c2cc(F)ccc12.Cl.Cl | 200 °C | 
8 | O=C(O)C(=O)O.c1ccc(CN2CCC(Cc3c(-c4ccccc4)[nH]c4ccccc34)C2)cc1 (centres unmarked) | 95 °C | 
9 | CN1CCN[C@@H](Cc2c(-c3cccc(F)c3)[nH]c3cc(F)ccc23)C1.Cl.Cl (hydrate or solvate) | 228 °C | 
10 | CN1C2CCC(C2)C1Cc1c(-c2ccccc2)[nH]c2ccccc12.Cl (centres unmarked) | 176 °C | 
11 | COc1cccc(C(O)C2CCN(CCc3ccc(F)cc3)CC2)c1OC (stereo not drawn) [MDL-100,907, (+)-α-(2,3-dimethoxyphenyl)-1-[2-(4-fluorophenyl)-ethyl]-4-piperidinemethanol] |  | block of apomorphine-induced stereotyped behaviour (animal models): failed to block apomorphine-induced stereotyped behaviour; efficacy for antipsychotic potential (schizophrenic patients): demonstrated efficacy; neurological adverse effects (schizophrenic patients): no neurological adverse effects; activity at the human dopamine D2 receptor [1]: essentially devoid of activity

The next lines start with results.

Row | melting point | Structure (SMILES) | other results
12 | 182 °C | O=C(O)C(=O)O.c1ccc(CCN2CCCC2Cc2c(-c3ccccc3)[nH]c3ccccc23)cc1 (centres unmarked) | 
13 | 183 °C | C[C@@H]1CC[C@H](Cc2c(-c3ccccc3)[nH]c3ccccc23)N1C.O=C(O)C(=O)O (relative stereo) | 
14 | 150 °C | CN1CCCC[C@@H]1Cc1c(-c2ccccc2)[nH]c2ccccc12 (hydrate or solvate) | 
15 | 185 °C | COCCN1CCCCC1Cc1c(-c2ccccc2)[nH]c2ccccc12.O=C(O)C(=O)O (centres unmarked) | 
16 | 232 °C | O=C(O)C(=O)O.c1ccc(CCN2CCCCC2Cc2c(-c3ccccc3)[nH]c3ccccc23)cc1 (centres unmarked) | 
17 | 80 °C | CN1CCC(Cc2c(-c3ccccc3)[nH]c3ccccc23)C1.O=C(O)C(=O)O (centres unmarked) | 
18 | 210 °C | O=C(O)C(=O)O.c1ccc(CN2CCCC2Cc2c(-c3ccccc3)[nH]c3ccccc23)cc1 (centres unmarked) | 
19 | 234 °C | CN1CCCC(Cc2c(-c3ccccc3)[nH]c3ccccc23)C1.O=C(O)C(=O)O (centres unmarked) (hydrate or solvate) | 
20 | 197 °C | CCN1CCCCC1Cc1c(-c2ccccc2)[nH]c2ccccc12.O=C(O)C(=O)O (centres unmarked) | 
21 | 235 °C | O=C(O)C(=O)O.c1ccc(CN2CCCCC2Cc2c(-c3ccccc3)[nH]c3ccccc23)cc1 (centres unmarked) | 
22 | 133 °C | CN1CCC[C@H]1Cc1c(-c2ccccc2)[nH]c2ccccc12 | 
23 | 135 °C | CN1CCCC[C@H]1Cc1c(-c2ccccc2)[nH]c2ccccc12 | 
